Measured values reported in patent US4252970A, “6-Deoxyneamines” (The Upjohn Company, priority 1979, dated 1981).
≈ marks a conversion by molar mass, not a printed value.

How the values were obtained:
Type in all cases: cell-based
[1] = tested on: P. rettgeri UC 339; assay: standard microplate test in BHI Agar (MIC); settings: Providencia rettgeri, UC339, 37°, 20 hours, read-out: Minimum Inhibitory Concentration
Description: (§1) The compounds VII, XI, XVβ, XVα and XVI were tested in a standard microplate test in BHI (Brain Heart Infusion) Agar at a concentration of 1 mg./ml. and dilutions thereof at 37° incubation temperature. The end points are read at 20 hours. BHI Agar is supplied by Difco Laboratories, Detroit, Michigan, U.S.A. and has the following compositions: […]

[2] = tested on: Ps. aeruginosa UC 95; assay: standard microplate test in BHI Agar (MIC); settings: Pseudomonas aeruginosa, UC95, 37°, 20 hours, read-out: Minimum Inhibitory Concentration
Description: as §1

[3] = tested on: S. aureus UC 76; assay: standard microplate test in BHI Agar (MIC); settings: Staphylococcus aureus, UC76, 37°, 20 hours, read-out: Minimum Inhibitory Concentration
Description: as §1

[4] = tested on: B. cereus UC 3145; assay: standard disc plate assay, zones of inhibition (12.5 mm paper discs); settings: 1 mg/ml
From the text: (§2) The compounds of formulas (V, VII, IX, XI, XIV, XVI, and XIX) are active as antibacterials and can be used in various environments to erradicate or control susceptible microorganisms. Tables I and II set forth the in vitro antibacterial test results for representative compounds of the present invention. The results were obtained with a standard disc plate assay using 12.5 mm paper discs.

[5] = tested on: B. subtilis UC 564; assay: as above
From the text: as §2

[6] = tested on: E. coli UC 51; assay: as above
From the text: as §2

[7] = tested on: K. pneumoniae UC 57; assay: as above
From the text: as §2

[8] = tested on: P. vulgaris UC 93; assay: as above
From the text: as §2

[9] = tested on: Ps. aeruginosa UC 95; assay: as above; settings: 1 mg/ml
From the text: as §2

[10] = tested on: S. aureus UC 80; assay: as above
From the text: as §2

[11] = tested on: S. schottmuelleri UC 126; assay: as above
From the text: as §2

[12] = tested on: K. pneumoniae UC 58; assay: standard microplate test in BHI Agar (MIC); settings: Klebsiella pneumoniae, UC58, 37°, 20 hours, read-out: Minimum Inhibitory Concentration
Description: as §1

[13] = tested on: S. faecalis UC 694; assay: standard microplate test in BHI Agar (MIC); settings: Enterococcus faecalis, UC694, 37°, 20 hours, read-out: Minimum Inhibitory Concentration
Description: as §1

[14] = tested on: S. marcescens UC 131; assay: standard microplate test in BHI Agar (MIC); settings: Serratia marcescens, UC131, 37°, 20 hours, read-out: Minimum Inhibitory Concentration
Description: as §1

[15] = tested on: S. pyogenes UC 152; assay: standard microplate test in BHI Agar (MIC); settings: Streptococcus pyogenes, UC152, 37°, 20 hours, read-out: Minimum Inhibitory Concentration
Description: as §1

C[C@@]1(O)C[C@H](N)C[C@H](N)[C@H]1O[C@H]1O[C@H](CN)[C@@H](O)[C@H](O)[C@H]1N [6-Deoxy-5-methyl-neamine]
MIC [1]: > 500 µg/mL
MIC [2]: > 500 µg/mL
MIC [3]: 15.6 µg/mL (≈ 48.7 µM)

NC[C@H]1O[C@H](O[C@H]2[C@H](O)[C@@H](O)[C@H](N)C[C@@H]2N)[C@H](N)[C@@H](O)[C@@H]1O [Neamine]
Zones of Inhibition [4]: 23 mm
Zones of Inhibition ([5]; 0.1 mg/ml): 28 mm
Zones of Inhibition ([5]; 1 mg/ml): 37 mm
Zones of Inhibition ([6]; 0.1 mg/ml): 18 mm
Zones of Inhibition ([6]; 1 mg/ml): 25 mm
Zones of Inhibition ([7]; 0.1 mg/ml): 26 mm
Zones of Inhibition ([7]; 1 mg/ml): 32 mm
Zones of Inhibition ([8]; 0.1 mg/ml): 15 mm
Zones of Inhibition ([8]; 1 mg/ml): 28 mm
Zones of Inhibition [9]: 18 mm
Zones of Inhibition ([10]; 0.1 mg/ml): 18 mm
Zones of Inhibition ([10]; 1 mg/ml): 26 mm
Zones of Inhibition ([11]; 0.1 mg/ml): 15 mm
Zones of Inhibition ([11]; 1 mg/ml): 23 mm

NC[C@H]1O[C@H](O[C@H]2[C@H](O)C[C@H](N)C[C@@H]2N)[C@H](N)[C@@H](O)[C@@H]1O [6-deoxyneamine (XI), 6-Deoxyneamine]
MIC [12]: 7.8 µg/mL (≈ 25.5 µM)
MIC [1]: 250 µg/mL (≈ 816 µM)
MIC [2]: > 500 µg/mL
MIC [13]: > 500 µg/mL
MIC [14]: 250 µg/mL (≈ 816 µM)
MIC [15]: 15.6 µg/mL (≈ 50.9 µM)
